Laboratory results as given in PMC6726485 (Nature, 2019).

Tests used:
[1] = biological target: T1, mitoKATP (endogenous, HeLa mitochondria) (Homo sapiens, UniProt Q9NUT2); assay: mitochondrial swelling; type: biochemical; conditions: KCl swelling buffer, 1 mM MgCl2, 1 uM oligomycin, pH 7.2
T1 sequence (Q9NUT2 26-735): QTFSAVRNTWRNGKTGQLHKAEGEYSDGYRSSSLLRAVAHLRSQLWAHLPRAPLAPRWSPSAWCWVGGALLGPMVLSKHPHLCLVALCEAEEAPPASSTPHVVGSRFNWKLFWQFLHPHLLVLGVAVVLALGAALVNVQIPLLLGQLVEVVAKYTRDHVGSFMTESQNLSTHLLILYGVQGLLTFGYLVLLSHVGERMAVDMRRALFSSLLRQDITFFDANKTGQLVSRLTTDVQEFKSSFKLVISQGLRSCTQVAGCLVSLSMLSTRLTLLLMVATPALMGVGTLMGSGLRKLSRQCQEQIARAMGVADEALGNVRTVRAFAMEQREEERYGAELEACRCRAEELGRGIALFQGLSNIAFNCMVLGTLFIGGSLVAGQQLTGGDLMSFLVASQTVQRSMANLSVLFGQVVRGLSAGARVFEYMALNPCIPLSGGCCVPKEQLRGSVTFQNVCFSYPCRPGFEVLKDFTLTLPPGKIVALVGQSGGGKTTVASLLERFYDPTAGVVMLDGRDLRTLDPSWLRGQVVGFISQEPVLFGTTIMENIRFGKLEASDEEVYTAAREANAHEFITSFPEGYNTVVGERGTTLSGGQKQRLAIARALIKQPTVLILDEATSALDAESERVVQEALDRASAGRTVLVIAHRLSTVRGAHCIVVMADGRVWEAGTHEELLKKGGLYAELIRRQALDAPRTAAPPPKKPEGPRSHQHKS
T1 sequence (Q96ER9 36-411 partner): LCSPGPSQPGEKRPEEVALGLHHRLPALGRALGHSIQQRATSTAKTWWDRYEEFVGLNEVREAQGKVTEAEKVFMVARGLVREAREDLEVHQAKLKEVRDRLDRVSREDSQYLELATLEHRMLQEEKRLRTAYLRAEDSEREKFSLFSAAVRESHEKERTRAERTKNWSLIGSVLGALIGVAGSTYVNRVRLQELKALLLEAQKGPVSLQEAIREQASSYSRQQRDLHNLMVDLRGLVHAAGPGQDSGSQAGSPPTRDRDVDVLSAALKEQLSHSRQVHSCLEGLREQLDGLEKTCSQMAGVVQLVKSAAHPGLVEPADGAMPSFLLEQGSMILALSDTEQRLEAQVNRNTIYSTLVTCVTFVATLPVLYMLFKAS

[2] = biological target: T2, mitoKATP (endogenous, mouse liver mitochondria) (Mus musculus, UniProt Q9CXJ4); assay: […]+ uptake, isolated liver mitochondria; type: biochemical; conditions: 1 mM MgCl2, 1 uM oligomycin, pH 7.2
T2 sequence (Q9CXJ4 26-717): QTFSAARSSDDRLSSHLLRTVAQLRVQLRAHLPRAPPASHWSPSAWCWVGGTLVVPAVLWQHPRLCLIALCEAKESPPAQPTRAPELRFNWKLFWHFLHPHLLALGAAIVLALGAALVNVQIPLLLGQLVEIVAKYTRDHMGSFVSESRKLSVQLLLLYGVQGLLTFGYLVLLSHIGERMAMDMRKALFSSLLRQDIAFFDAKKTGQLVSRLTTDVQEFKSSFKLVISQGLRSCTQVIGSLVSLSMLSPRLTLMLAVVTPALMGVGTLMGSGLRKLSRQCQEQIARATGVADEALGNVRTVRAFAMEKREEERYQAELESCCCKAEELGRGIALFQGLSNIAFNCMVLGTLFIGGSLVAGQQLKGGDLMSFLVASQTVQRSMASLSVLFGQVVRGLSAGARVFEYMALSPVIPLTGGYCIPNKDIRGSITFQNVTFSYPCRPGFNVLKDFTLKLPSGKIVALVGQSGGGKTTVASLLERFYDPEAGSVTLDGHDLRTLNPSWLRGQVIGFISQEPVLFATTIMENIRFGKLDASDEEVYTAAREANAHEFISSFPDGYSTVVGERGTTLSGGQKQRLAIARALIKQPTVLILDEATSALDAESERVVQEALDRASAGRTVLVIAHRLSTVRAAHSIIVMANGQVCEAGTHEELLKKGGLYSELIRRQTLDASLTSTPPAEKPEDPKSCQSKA
T2 sequence (Q3URS9 36-406 partner): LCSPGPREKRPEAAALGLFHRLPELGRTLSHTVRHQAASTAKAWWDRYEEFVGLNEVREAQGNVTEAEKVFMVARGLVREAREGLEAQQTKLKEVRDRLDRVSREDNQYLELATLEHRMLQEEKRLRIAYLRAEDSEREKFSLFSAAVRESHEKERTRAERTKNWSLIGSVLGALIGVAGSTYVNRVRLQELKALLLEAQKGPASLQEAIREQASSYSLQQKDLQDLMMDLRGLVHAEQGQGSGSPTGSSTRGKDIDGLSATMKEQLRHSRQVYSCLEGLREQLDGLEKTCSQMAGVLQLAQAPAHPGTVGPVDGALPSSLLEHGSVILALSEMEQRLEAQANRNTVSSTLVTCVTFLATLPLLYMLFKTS

| SMILES | mitochondrial swelling (A520), isolated HeLa mitochondria ([1]; activator) | 86Rb+ uptake, isolated liver mitochondria ([2]; activator, 50 uM diazoxide) | mitochondrial swelling (A520), isolated HeLa mitochondria ([1]; inhibitor) | 86Rb+ uptake, isolated liver mitochondria ([2]; inhibitor, 2 mM ATP) |
| --- | --- | --- | --- | --- |
| CC1=NS(=O)(=O)c2cc(Cl)ccc2N1 [diazoxide] | ATP decreases and diazoxide increases the swelling rates | neither ATP nor diazoxide were able to alter K^+ fluxes when Mitok was absent |  |  |
| Nc1ncnc2c1ncn2[C@@H]1O[C@H](COP(=O)(O)OP(=O)(O)OP(=O)(O)O)[C@@H](O)[C@H]1O [ATP] |  |  | ATP decreases and diazoxide increases the swelling rates | neither ATP nor diazoxide were able to alter K^+ fluxes when Mitok was absent |
